Experimental findings from patent US9187435B2, “Bridged Spiro[2.4]heptane ester derivatives” (Actelion Pharmaceuticals Ltd., priority 2010, dated 2015) are described below.

Structures can show the parent of a compound that is named as a salt.

This assay concerns the target T1, human ALX receptor (Homo sapiens, UniProt P25090).
T1 construct: expressed in transfected cells; host or cells: HEK293 (HEK293-hALXR-Gα16)
T1 sequence (P25090 1-351): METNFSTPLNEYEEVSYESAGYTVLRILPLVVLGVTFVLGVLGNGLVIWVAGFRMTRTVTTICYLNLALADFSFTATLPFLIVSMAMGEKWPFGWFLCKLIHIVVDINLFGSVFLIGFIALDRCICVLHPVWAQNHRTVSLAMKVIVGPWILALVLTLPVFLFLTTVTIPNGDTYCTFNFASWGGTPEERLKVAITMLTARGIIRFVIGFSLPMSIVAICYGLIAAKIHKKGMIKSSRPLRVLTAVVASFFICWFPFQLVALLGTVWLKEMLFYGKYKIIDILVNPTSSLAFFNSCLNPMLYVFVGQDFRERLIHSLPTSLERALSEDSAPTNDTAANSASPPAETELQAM
Description: Intracellular calcium measurements (FLIPR) in HEK293-hALXR-Gα16 cells, agonistic activity. Format: cell-based. To be noted: values normalized to WKYMVm 10 nM. An outline of the steps: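 HEK293 cells co-expressing human ALX receptor and Gα16, loaded with 1 μM Fluo-4 AM (60 min, 37 °C), then exposed to serially diluted compound. Peak fluorescence above baseline (ex 488/em 540 nm) was recorded after compound addition. Values were normalized to 10 nM WKYMVm as the high control, after subtracting the buffer-addition baseline.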
(Calcium assays in cells follow changes in intracellular calcium, usually with a dye or a luminescent sensor.)
As a reminder, the EC50 is the concentration giving half of the maximal effect. For `Cc1cc(CNC(=O)[C@H]2[C@H](C(=O)OCC3CCCNC3)[C@H]3CC[C@@H]2C32CC2)no1` (stereo partly drawn) [Example 18, (1S,2R,3R,4R)-[Piperidin-3-ylmethyl 2-(((5-methylisoxazol-3-yl)methyl)carbamoyl)spiro[bicyclo[2.2.1]heptane-7,1′-cyclopropane]-3-carboxylate]hydrochloride], the EC50 was 87.7 nM.
Then `NCc1cccc(COC(=O)[C@H]2[C@H](C(=O)Nc3ccc(Br)nc3)[C@@H]3CC[C@H]2C32CC2)c1` [Example 45, (1S,2R,3R,4R)-[3-(Aminomethyl)benzyl 2-((6-bromopyridin-3-yl)carbamoyl)spiro[bicyclo[2.2.1]heptane-7,1′-cyclopropane]-3-carboxylate]], with 9.3 nM; and `Cc1cc(CNC(=O)[C@H]2[C@H](C(=O)OCC3(F)CCNCC3)[C@H]3CC[C@@H]2C32CC2)no1` [Example 59, (1S,2R,3R,4R)-[(4-Fluoro-piperidin-4-yl)methyl 2-(((5-methylisoxazol-3-yl)methyl)carbamoyl)spiro[bicyclo[2.2.1]heptane-7,1′-cyclopropane]-3-carboxylate]], with 41.4 nM; and `O=C(OCCC1CCNCC1)[C@H]1[C@H](C(=O)Nc2ccc(Br)nc2)[C@@H]2CC[C@H]1C21CC1` [Example 36, (1S,2R,3R,4R)-[2-(Piperidin-4-yl)ethyl 2-((6-bromopyridin-3-yl)carbamoyl)spiro[bicyclo[2.2.1]heptane-7,1′-cyclopropane]-3-carboxylate]hydrochloride], with 0.4 nM.
Then `Cc1cc(CNC(=O)[C@H]2[C@H](C(=O)OC3CCCC3)[C@H]3CC[C@@H]2C32CC2)no1` [Example 29, (1S,2R,3R,4R)-[Cyclopentyl 2-(((5-methylisoxazol-3-yl)methyl)carbamoyl)spiro[bicyclo[2.2.1]heptane-7,1′-cyclopropane]-3-carboxylate]], with 790 nM; and `O=C(OC[C@@H]1CCNC[C@H]1F)[C@H]1[C@H](C(=O)Nc2ccc(Br)nc2)[C@@H]2CC[C@H]1C21CC1` (relative stereo) [Example 70, (1S,2R,3R,4R)-[(trans-3-Fluoro-piperidin-4-yl)methyl 2-((6-bromopyridin-3-yl)carbamoyl)spiro[bicyclo[2.2.1]heptane-7,1′-cyclopropane]-3-carboxylate]], with 157 nM; and `O=C(OCCN1CCNCC1)[C@H]1[C@H](C(=O)NCc2ccc(Br)cc2F)[C@@H]2CC[C@H]1C21CC1` [Example 71, (1S,2R,3R,4R)-[2-(piperazin-1-yl)ethyl 2-((4-bromo-2-fluorobenzyl)carbamoyl)spiro[bicyclo[2.2.1]heptane-7,1′-cyclopropane]-3-carboxylate]dihydrochloride], with 162 nM.
As for `O=C(OCCOCCN1CCCC1)[C@H]1[C@H](C(=O)Nc2ccc(Br)nc2)[C@@H]2CC[C@H]1C21CC1` [Example 31, (1S,2R,3R,4R)-[2-(2-(Pyrrolidin-1-yl)ethoxy)ethyl 2-((6-bromopyridin-3-yl)carbamoyl)spiro[bicyclo[2.2.1]heptane-7,1′-cyclopropane]-3-carboxylate]], the figure is 2.2 nM; as for `Cc1cc(CNC(=O)[C@H]2[C@H](C(=O)OC3CCCNC3)[C@H]3CC[C@@H]2C32CC2)no1` (stereo partly drawn) [Example 16, (1S,2R,3R,4R)-[Piperidin-3-yl 2-(((5-methylisoxazol-3-yl)methyl)carbamoyl)spiro[bicyclo[2.2.1]heptane-7,1′-cyclopropane]-3-carboxylate]hydrochloride], 53.7 nM.
On to `Cc1cc(CNC(=O)[C@H]2[C@H](C(=O)OC3CCNCC3(F)F)[C@H]3CC[C@@H]2C32CC2)on1` (stereo partly drawn) [Example 61, (1S,2R,3R,4R)-[(3,3-Difluoro-piperidin-4-yl) 2-(((3-methylisoxazol-5-yl)methyl)carbamoyl)spiro[bicyclo[2.2.1]heptane-7,1′-cyclopropane]-3-carboxylate]], for which the EC50 was 50.1 nM.
Then `O=C(OCC[C@@H]1CCCCN1)[C@H]1[C@H](C(=O)Nc2ccc(Br)nc2)[C@@H]2CC[C@H]1C21CC1` [Example 11, (1S,2R,3R,4R)-[(S)-2-(Piperidin-2-yl)ethyl 2-((6-bromopyridin-3-yl)carbamoyl)spiro[bicyclo[2.2.1]heptane-7,1′-cyclopropane]-3-carboxylate]hydrochloride], with 8.8 nM; and `Cc1cc(CNC(=O)[C@H]2[C@H](C(=O)OCCC(N)=O)[C@H]3CC[C@@H]2C32CC2)on1` [Example 65, (1S,2R,3R,4R)-[(3-Amino-3-oxopropyl) 2-(((3-methylisoxazol-5-yl)methyl)carbamoyl)spiro[bicyclo[2.2.1]heptane-7,1′-cyclopropane]-3-carboxylate]], with 107 nM; and `O=C(OCC1CCNCC1)[C@H]1[C@H](C(=O)NCc2ccc(Br)cc2F)[C@@H]2CC[C@H]1C21CC1` [Example 4, (1S,2R,3R,4R)-[Piperidin-4-ylmethyl 2-((4-bromo-2-fluorobenzyl)carbamoyl)spiro[bicyclo[2.2.1]heptane-7,1′-cyclopropane]-3-carboxylate]hydrochloride], with 52.1 nM.
